{"source": "patent US9566247B2", "about": "“Nanoparticles for controlled release of anti-biofilm agents and methods of use” (priority 2013, dated 2017)", "key": {"[1]": {"test_system": "Streptococcus mutants (S. mutans)", "conditions": "cited from earlier work"}, "[2]": {"test_system": "Biofilms of S. mutans UA159", "assay": "Antibiofilm activity, CFU per dry weight of biofilms on sHA discs", "format": "cell-based, Streptococcus mutans", "conditions": "equivalent dose of free farnesol (15% EtOH) or free NPC", "experimental": "Biofilms of S. mutans UA159 were formed on saliva coated hydroxyapatite (sHA) surfaces (12.7 mm in diameter, 1 mm in thickness, Clarkson Chromatography Products Inc., South Williamsport, Pa.) as detailed elsewhere (Koo et al., 2010, J Bacteriol, 192(12):3024-32). The HA discs were placed vertically using a custom-made holder and grown in UFTYE (pH 7.0) with 1% sucrose at 37° C. and 5% CO2. Disks were pretreated with the above-described solutions for 10 min, washed twice with sterile saline, and transferred back to culture media. The first treatment was applied directly after salivary pellicle formation (sHA) then treated disks were transferred to culture media containing S. mutans (10^5 CFU/ml). Biofilms were allowed to form on the discs without interruption for 6 hours at which point a second treatment was applied. The next day, biofilms were treated every 6 hours for a total of 3 treatments and the culture media was changed twice. After 48 hours, the amount of colony forming units (CFU) per dry-weight of biofilms was assessed. Briefly, the biofilms were removed and homogenized, then plated onto blood agar plates, and after incubation at 37° C., 5% CO2, the CFUs were counted as described previously (Koo et al., 2003, J Antimicrob Chemother, 52(5):782-9)."}}, "data": [{"smiles": "CC(C)=CCCC(C)=CCCC(C)=CCO", "note": "[farnesol]", "values": [{"measurement": "MIC", "setting": "[1]", "value": "< 28", "unit": "µg/mL"}, {"measurement": "effect on CFU relative to PBS", "setting": "[2]", "value": "no effect on CFU"}]}]}
